# Where two headings read alike, the source gives them in different places.
# Experiments:
# IL-6 = experiment: THP-1 AlphaLISA IL-6 cytokine assay (differentiated THP-1 cells); assay type: cell-based; conditions: Homo sapiens
# Method: (§1) Measuring Inhibitory Effects on IL-1V Cytokine and IL-6 Output from THP-1s
# (§2) The cytokine inhibition profiles of compounds of formula (I) were determined in a differentiated THP-1 cell assay. All assays were performed in RPMI-1640 growth medium (Gibco), supplemented with 10% fetal bovine serum (FBS; Gibco), 1% penicillin-streptomycin and 1% sodium pyruvate unless specified otherwise. The IL-1β and IL-6 cytokine inhibition assays were run in a background of differentiated THP-1 cells as described below. All reagents described were from Sigma-Aldrich unless specified otherwise. Compounds were prepared as 10 mM DMSO stocks.
# (§3) THP-1 cells were expanded as a suspension up to 80% confluence in appropriate growth medium. Cells were harvested, suspended, and treated with an appropriate concentration of phorbol 12-myristate 13-acetate (PMA) over a 72 hr period (37° C./5% CO2).
# (§4) Following 72 hrs of THP-1 cell incubation, cellular medium was removed and replaced with fresh growth media containing 1% of FBS. Working concentrations of compounds were prepared separately in 10% FBS treated growth medium and pre-incubated with the cells for 30 minutes (37° C./5% CO2). Following the 30 minute compound pre-incubation, THP-1s were treated with an appropriate concentration of LPS and the THP-1s were subsequently incubated for a 24 hr period (37° C./5% CO2). An appropriate final concentration of Nigericin was then dispensed into the THP-1 plates and incubated for 1 hour (37° C./5% CO2) before THP-1 supernatants were harvested and collected in separate polypropylene 96-well holding plates.
# (§5) Reagents from each of the IL-1β and IL-6 commercial kits (Perkin Elmer) were prepared and run according to the manufacturer's instructions. Subsequently, fluorescence signal detection in a microplate reader was measured (EnVision® Multilabel Reader, Perkin Elmer).
# (§6) Percentage inhibition was calculated per cytokine by normalising the sample data to the high and low controls used within each plate (+/−LPS respectively).
# (§7) Dimethyl itaconate and 4-octyl itaconate were included as comparator compounds.
# [1] = system: cryo-preserved hepatocytes; experiment: Hepatocyte stability assay, human; assay type: in vitro ADME; conditions: human, hepatocytes
# Text: (§8) Defrosted cryo-preserved hepatocytes (viability>70%) were used to determine the metabolic stability of a compound via calculation of intrinsic clearance (CIint; a measure of the removal of a compound from the liver in the absence of blood flow and cell binding). Clearance data are particularly important for in vitro work as they can be used in combination with in vivo data to predict the half-life and oral bioavailability of a drug.
# (§9) The metabolic stability in hepatocytes assay involved a time-dependent reaction using both positive and negative controls. The cells must be pre-incubated at 37° C. then spiked with test compound (and positive control); samples taken at pre-determined time intervals were analysed to monitor the change in concentration of the initial drug compound over 60 minutes. A buffer incubation reaction (with no hepatocytes present) acted as a negative control and two cocktail solutions, containing compounds with known high and low clearance values (verapamil/7-hydroxycoumarin and propranolol/diltiazem), acted as positive controls. • 1. The assay was run with a cell concentration of 0.5×10^6 cells/mL in Leibovitz buffer. • 2. All compounds and controls were run in duplicate. • 3. Compound concentration was 10 μM. • 4. All compounds and controls were incubated with both cells and buffer to show turnover is due to hepatic metabolism. • 5. All wells on the incubation plate had 326.7 μL of either cells or buffer added. • 6. Prior to assay, cell and buffer-only incubation plates were preincubated for 10 mins at 37° C. • 7. The assay was initiated by adding compounds, 3.3 μL of 1 mM in 10% DMSO-90% Buffer; final DMSO concentration is 0.1%. • 8. Samples were taken at regular timepoints (0, 5, 10, 20, 40, 60 min) until 60 mins. • 9. Sample volume was 40 μL and added to 160 μL of crash solvent (acetonitrile with internal standard) and stored on ice. • 10. At the end of the assay, the crash plates were centrifuged at 3500 rpm for 20 mins at 4° C. • 11. 80 μL of clear supernatant was removed and mixed with 80 μL of deionised water before being analysed by LC-MS/MS.
# (§10) Raw LC-MS/MS data were exported to, and analysed in, Microsoft Excel for determination of intrinsic clearance. The percentage remaining of a compound was monitored using the peak area of the initial concentration as 100%. Intrinsic clearance and half-life values were calculated using a graph of the natural log of percentage remaining versus the time of reaction in minutes.
# (§11) 4-Octyl itaconate was included as a comparator compound.
# [2] = Hepatocyte stability assay, human; assay type: in vitro ADME; conditions: human, hepatocytes, T½
# Text: as §8, §9, §10, §11
# [3] = system: cryo-preserved hepatocytes; experiment: Hepatocyte stability assay, mouse; assay type: in vitro ADME; conditions: mouse, hepatocytes
# Text: as §8, §9, §10, §11
# [4] = Hepatocyte stability assay, mouse; assay type: in vitro ADME; conditions: mouse, hepatocytes, T½
# Text: as §8, §9, §10, §11
# IL-1β = experiment: THP-1 AlphaLISA IL-1β cytokine assay (differentiated THP-1 cells); assay type: cell-based; conditions: Homo sapiens
# Method: as §1, §2, §3, §4, §5, §6, §7
# [5] = THP-1, differentiated THP-1 cells, LPS 24 hr then Nigericin 1 hour, read-out: IL-6 (IC50)
# [6] = THP-1, differentiated THP-1 cells, LPS 24 hr then Nigericin 1 hour, read-out: IL-1β (IC50)
SMILES,IC50 (IL-6; [5]) [µM],Clint [1] [μL min^−1 10^−6 cells],half-life at 10 μM [2] [h],Clint [3] [μL min^−1 10^−6 cells],half-life at 10 μM [4] [h],IC50 (IL-1β; [6]) [µM],"IC50 (IL-6; THP-1, read-out: IL-6 (IC50)) [µM]","IC50 (IL-1β; THP-1, read-out: IL-1β (IC50)) [µM]"
"C=C(CC(=O)N[C@@H](C)c1ccc(C(F)(F)F)cc1)C(=O)OCCN(C)C [Example 26, 2-(dimethylamino)ethyl (S)-2-methylene-4-oxo-4-((1-(4-(trifluoromethyl)phenyl)ethyl)amino)butanoate]",3.9,62,0.4,>460,< 0.05,5.1,,
"C=C(CC(=O)N[C@@H](C)c1ccc(C(F)(F)F)cc1)C(=O)OC1(C)COC1 [Example 28, 3-methyloxetan-3-yl (S)-2-methylene-4-oxo-4-((1-(4-(trifluoromethyl)phenyl)ethyl)amino)butanoate]",,80,0.3,>460,< 0.05,,5.6,10.5
"C/C=C(/CC(=O)N[C@@H](C)c1ccc(C(F)(F)F)cc1)C(=O)O [Example 41, (S,Z)-2-(2-oxo-2-((1-(4-(trifluoromethyl)phenyl)ethyl)amino)ethyl)but-2-enoic acid]",,<3,> 7.67,<3,> 7.67,,> 31.6,24.3
"CC(C)C/C=C(\CC(=O)N[C@@H](C)c1ccc(C(F)(F)F)cc1)C(=O)O [Example 45, (S,E)-5-methyl-2-(2-oxo-2-((1-(4-(trifluoromethyl)phenyl)ethyl)amino)ethyl)hex-2-enoic acid]",> 31.6,8,3.83,30,0.793,2.1,,
"C[C@H](NC(=O)C/C(=C\c1ccccc1)C(=O)O)c1ccc(C(F)(F)F)cc1 [Example 47, (S,E)-2-benzylidene-4-oxo-4-((1-(4-(trifluoromethyl)phenyl)ethyl)amino)butanoic acid]",> 100,<3,> 7.67,12,2.2,> 100,,
"C[C@H](NC(=O)C/C(=C/c1ccccc1)C(=O)O)c1ccc(C(F)(F)F)cc1 [Example 48, (S,Z)-2-benzylidene-4-oxo-4-((1-(4-(trifluoromethyl)phenyl)ethyl)amino)butanoic acid]",> 100,7,3.73,95,0.267,2.3,,
"C[C@H](NC(=O)C/C(=C\CN(C)C)C(=O)O)c1ccc(C(F)(F)F)cc1 [Example 49, (S,E)-4-(dimethylamino)-2-(2-oxo-2-((1-(4-(trifluoromethyl)phenyl)ethyl)amino)ethyl)but-2-enoic acid]",,<3,> 7.67,<3,> 7.67,,> 100,16.5
"C=C(C(=O)O)C(C)(C)C(=O)N[C@@H](C)c1ccc(C(F)(F)F)cc1 [Example 50, (S)-3,3-dimethyl-2-methylene-4-oxo-4-((1-(4-(trifluoromethyl)phenyl)ethyl)amino)butanoic acid]",> 100,<3,> 7.67,13,1.73,1.1,,

# More lines, main results first:
IC50 (IL-6; [5]) [µM],Clint [1] [μL min^−1 10^−6 cells],half-life at 10 μM [2] [h],Clint [3] [μL min^−1 10^−6 cells],half-life at 10 μM [4] [h],IC50 (IL-1β; [6]) [µM],SMILES,"IC50 (IL-6; THP-1, read-out: IL-6 (IC50)) [µM]","IC50 (IL-1β; THP-1, read-out: IL-1β (IC50)) [µM]"
> 100,<3,> 7.67,38,0.633,17.4,"C=C(CC(=O)N[C@@H](C)c1ccc(C(F)(F)C(F)(F)F)cc1)C(=O)O [Example 20, (S)-2-methylene-4-oxo-4-((1-(4-(perfluoroethyl)phenyl)ethyl)amino)butanoic acid]",,
> 100,<3,> 7.67,76,0.367,4,"C=C(CC(=O)N[C@H](c1ccc(C(F)(F)F)cc1)C(F)(F)F)C(=O)O [Example 21, (R)-2-methylene-4-oxo-4-((2,2,2-trifluoro-1-(4-(trifluoromethyl)phenyl)ethyl)amino)butanoic acid]",,
> 100,<3,> 7.67,<3,> 7.67,9.2,"C=C(CC(=O)N[C@@H](C)c1ccc(C(F)(F)F)cn1)C(=O)O [Example 30, (S)-2-methylene-4-oxo-4-((1-(5-(trifluoromethyl)pyridin-2-yl)ethyl)amino) butanoic acid]",,
3.64,151,0.183,205,0.167,1.82,"C=C(CC(=O)N[C@@H](C)c1ccc(C(F)(F)F)cn1)C(=O)OC1CS(=O)(=O)C1 [Example 33, 1,1-dioxidothietan-3-yl (S)-2-methylene-4-oxo-4-((1-(5-(trifluoromethyl)pyridin-2-yl)ethyl)amino)butanoate]",,
> 100,<3,> 7.67,<3,> 7.67,15.4,"C=C(CC(=O)NC1(c2ccc(C(F)(F)F)cn2)CCC1)C(=O)O [Example 39, 2-methylene-4-oxo-4-((1-(5-(trifluoromethyl)pyridin-2-yl)cyclobutyl)amino) butanoic acid]",,
> 100,<3,> 7.67,<3,> 7.67,26.9,"C=C(CC(=O)NC1CCc2cc(C(F)(F)F)ccc21)C(=O)O (stereo not drawn) [Example 40, 2-methylene-4-oxo-4-((5-(trifluoromethyl)-2,3-dihydro-1H-inden-1-yl)amino) butanoic acid]",,
> 100,<3,> 7.67,11,2.77,3.3,"C=C(CC(=O)N[C@@H](C)c1ccc(S(F)(F)(F)(F)F)cc1)C(=O)O [Example 56, (S)-2-methylene-4-oxo-4-((1-(4-(pentafluoro-A6-sulfaneyl)phenyl)ethyl)amino)butanoic acid]",,

# Source: patent US20240245691A1 (Sitryx Therapeutics Limited, priority 2021, published 2024)
